From patent US6897208B2, “Benzimidazoles” (Aventis Pharmaceuticals Inc., priority 2001, dated 2005)

What was measured:
human KDR enzyme = molecular target: T1, human KDR enzyme (Homo sapiens, UniProt P35968); assay: Phosphorylation of PLCγ substrate by the enzyme KDR in vitro (flashplate technique); format: biochemical; conditions: read-out: IC50 (μM) on inhibition of the phosphorylation of PLCγ by KDR
T1 construct: The cytoplasmic domain of human KDR enzyme is cloned in the form of a GST fusion; GST; made in house; host or cells: SF21 insect cells (baculovirus, pFastBac)
Description: 1. Inhibitory Effects of Compounds on KDR
The inhibitory effect of the compounds is determined in a test of phosphorylation of a substrate by the enzyme KDR in vitro by the flasplate technique (96-well plate, NEN).
The cytoplasmic domain of human KDR enzyme is cloned in the form of a GST fusion into the baculovirus expression vector pFastBac. The protein is expressed in the SF21 cells and purified to about 60% homogeneity.
The kinase activity of KDR is measured in 20 mM MOPS, 10 mM MgCl2, 10 mM MnCl2, 1 mM DTT, 2.5 mM EGTA, 10 mM β glycerophosphate, pH 7.2 in the presence of 10 mM MgCl2, 100 μM Na3VO4, 1 mM NaF. 10 μl of the compound are added to 70 μl of kinase buffer containing 100 ng of KDR enzyme at 4° C. The reaction is initiated by adding 20 μl of solution containing 2 μg of substrate (fragment SH2-SH3 of PLCγ expressed in the form of a GST fusion protein), 2 μCi γ33P[ATP] and 2 μM cold ATP. After incubating for 1 hour at 37° C., the reaction is quenched by adding 1 volume (100 μl) of 200 mM EDTA. The incubation buffer is removed and the wells are washed three times with 300 μl of PBS. The radioactivity is measured in each well using a Top Count NXT instrument (Packard).
Background noise is determined by measuring the radioactivity in wells in quadruplet containing radioactive ATP and the substrate alone.
An activity control is measured in wells in quadruplet containing all the reagents (γ33P-[ATP], KDR and the substrate PLCγ) and in the absence of compound.
The inhibition of the KDR activity with the compound of the invention is expressed as a percentage of inhibition of the control activity determined in the absence of compound.
The compound SU5614 (Calbiochem) (1 μM) is included in each plate as inhibition control.
The IC50 values for the compounds are calculated by plotting the dose-response curves. The IC50 corresponds to the concentration of compound that induces a 50% inhibition of the kinase activity.

T1 sequence (P35968 786-1356 limits assumed): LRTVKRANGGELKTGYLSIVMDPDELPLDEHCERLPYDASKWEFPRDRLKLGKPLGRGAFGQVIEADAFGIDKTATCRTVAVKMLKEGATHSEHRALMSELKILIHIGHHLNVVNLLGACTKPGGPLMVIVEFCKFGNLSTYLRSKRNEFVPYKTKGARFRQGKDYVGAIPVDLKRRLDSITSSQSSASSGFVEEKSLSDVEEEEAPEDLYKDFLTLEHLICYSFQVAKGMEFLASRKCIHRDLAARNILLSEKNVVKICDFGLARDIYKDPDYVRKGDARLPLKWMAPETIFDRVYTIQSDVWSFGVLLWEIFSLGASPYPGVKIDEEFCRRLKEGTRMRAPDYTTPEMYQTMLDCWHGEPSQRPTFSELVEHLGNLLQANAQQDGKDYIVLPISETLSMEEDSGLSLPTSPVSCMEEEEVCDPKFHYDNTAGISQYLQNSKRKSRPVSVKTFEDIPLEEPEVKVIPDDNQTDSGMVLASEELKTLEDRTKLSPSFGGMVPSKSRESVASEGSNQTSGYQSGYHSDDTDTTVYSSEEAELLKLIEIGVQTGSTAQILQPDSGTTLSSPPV

Row | Compound | IC50 (human KDR enzyme) [µM] | melting point [°C]
1 | 2-(1H-Indazol-3-yl)-1H-benzimidazole-5-carboxylic acid N-(N′-methyl-piperazino)amide [Example 8] | 0.67 | –
2 | CSc1cc(-c2nc3ccccc3[nH]2)n[nH]1 [Example 240, (Benzoimidazol-2-yl)-5-methylthio-3-pyrazole] | – | 242
3 | CSc1cc(-c2nc3ccccc3[nH]2)no1 [Example 238, 2-(5-Methylsulfanyl-isoxazol-3-yl)-1H-benzoimidazole] | – | 179 to 181
4 | 2-(1H-Indazol-3-yl)-1H-benzimidazole-5-carboxylic acid N-pyrrolidinoamide [Example 9] | 0.35 | –
5 | CCOc1cc(-c2nc3ccccc3[nH]2)n[nH]1 [Example 237, 2-(5-Ethoxy-1H-pyrazol-3-yl)-1H-benzoimidazole] | – | 217 to 219.5
6 | COc1cc2nc(-c3n[nH]cc3NC(=O)C3CC3)[nH]c2cc1Cl [Example 258(a), Cyclopropanecarboxylic acid [3-(6-chloro-5-methoxy-1H-benzoimidazol-2-yl)-1H-pyrazol-4-yl]-amide] | – | 225 to 226
7 | 2-(1H-Indazol-3-yl)-1H-benzimidazole-5-carboxylic acid N-morpholinoamide [Example 7] | 0.72 | –
8 | Cc1cc(-c2nc3ccccc3[nH]2)n[nH]1 [Example 236, 2-(5-Methyl-1H-pyrazol-3-yl)-1H-benzoimidazole] | – | 322 to 324
9 | 2-(1H-Indazol-3-yl)-1H-benzimidazole-5-carboxylic acid N-(2-furfuryl)amide [Example 12] | 0.16 | –
